The values below come from publication PMC5607274, “An iterative compound screening contest method for identifying target protein inhibitors using the tyrosine-protein kinase Yes” (Scientific Reports, 2017).

The structures appear in SMILES notation.

T1 sequence (P07947 2-543): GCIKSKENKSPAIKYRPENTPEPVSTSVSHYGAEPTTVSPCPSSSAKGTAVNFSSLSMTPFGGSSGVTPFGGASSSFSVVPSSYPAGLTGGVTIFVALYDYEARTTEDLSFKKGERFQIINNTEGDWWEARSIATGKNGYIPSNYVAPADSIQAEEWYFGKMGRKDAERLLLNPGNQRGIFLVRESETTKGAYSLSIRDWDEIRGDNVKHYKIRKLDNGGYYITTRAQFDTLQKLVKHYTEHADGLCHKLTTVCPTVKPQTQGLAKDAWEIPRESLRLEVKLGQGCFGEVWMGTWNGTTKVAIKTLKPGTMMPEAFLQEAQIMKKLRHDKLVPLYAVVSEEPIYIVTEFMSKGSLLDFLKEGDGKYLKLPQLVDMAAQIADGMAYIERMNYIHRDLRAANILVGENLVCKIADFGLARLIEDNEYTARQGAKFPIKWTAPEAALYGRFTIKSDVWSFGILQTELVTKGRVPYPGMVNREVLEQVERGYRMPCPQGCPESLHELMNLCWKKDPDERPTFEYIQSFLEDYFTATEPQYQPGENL

This experiment concerns the target T1, human recombinant Yes [a.a. 2–543 (end)] (Homo sapiens, UniProt P07947).
T1 construct: human recombinant Yes [a.a; 2–543 (end)]; purchased BPS Bioscience 40488
Description: ADP-Glo kinase assay, inhibition rates of Yes phosphorylation activity (first and second screening). The class given is biochemical. As to conditions: first screening; mean of n = 4 wells; 10 μmol L−1 compound. Put shortly:
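ADP-Glo luminescence measured inhibition of human recombinant Yes (a.a. 2–543) phosphorylation activity. In the first screen, each compound ran in 4 wells and inhibition rates were averaged. The second screen retested hits as compounds dissolved from fresh powder.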
Background: ADP-Glo turns the ADP formed in a reaction into a luminescent signal.
With `COc1ccc(-c2n[nH]c(CNC(=O)C3=NN(C)C(=O)CC3)n2)cc1` [Compound Z1119644111], the “First screening IR (inhibition rate)” value was 4%.
With `CC(C)c1nnc(CNC(C)(C)c2ccc(Cl)cc2)o1` [Compound Z1120830695], the “First screening IR (inhibition rate)” value came to 17%.
Regarding `CN(C)C(=O)Sc1ccc(NC(=O)COc2ccc(F)cc2)cc1` [Compound Z1126778415], the “First screening IR (inhibition rate)” value is -17%.
The figure for `Cc1cccc(OCC(=O)Nc2ccc(SC(=O)N(C)C)cc2)c1` [Compound Z1126778839] is -6%; for `Cc1cc(N(Cc2cn3ccsc3n2)C(C)C)ccc1C(N)=O` [Compound Z1127155490] it is -7%.
`CCN1CCCN(S(=O)(=O)c2ccccc2S(C)(=O)=O)CC1` [Compound Z1127188257]: the “First screening IR (inhibition rate)” value worked out at 43%.
The same measure for `Cc1ccc(C)c(CS(=O)(=O)CCCS(=O)(=O)N(C)C)c1` [Compound Z1127660495]: 12%; for `CN(C)S(=O)(=O)CCCS(=O)(=O)Cc1cccc(F)c1` [Compound Z1127660834]: 6%; for `CN(C)S(=O)(=O)CCCS(=O)(=O)Cc1ccc(Cl)cc1` [Compound Z1127660880]: -4%.
The same measure for `O=C(Nc1n[nH]c(-c2ccccn2)n1)c1ccc(-n2cccn2)c(F)c1` [Compound Z1128365659]: 4%.
The same measure for `O=C(CCN1CCCC1=O)Nc1ccc(Oc2ccc(F)cc2)cn1` [Compound Z1129155203]: -12%; for `CNc1snc(C)c1C(=O)NC(C)c1sc(-c2ccc(F)cc2)nc1C` (centres unmarked) [Compound Z1129440199]: 29%; for `CC(C)(C)OC(=O)N1CCCc2cc(NC(=O)c3cnc[nH]3)ccc21` [Compound Z1131596340]: 1%.
In the case of `Cc1ccc(S(=O)(=O)CCCS(=O)(=O)N(C)C)c(C)c1` [Compound Z1134191614], the “First screening IR (inhibition rate)” value is reported as -1%.
On to `CN(C)S(=O)(=O)CCCS(=O)(=O)c1nccn1C` [Compound Z1134191724], for which the “First screening IR (inhibition rate)” value amounted to 22%.
The same measure for `Oc1c(Br)cccc1CNCc1ncc(-c2ccccc2)o1` [Compound Z1135283259]: -4%; for `N#Cc1cccc(C(=O)NCc2nc(-c3ccc(F)cc3)n[nH]2)c1` [Compound Z1137567528]: 55%; for `Cn1ncc2c(N3CCOC(Cn4cccn4)C3)ncnc21` (centres unmarked) [Compound Z1139215576]: 18%.
The figure for `Cc1nc(C)n(C2CCCN(C(=O)CCn3ccnc3)C2)n1` (centres unmarked) [Compound Z1139343408] is 0%; for `CC(C)c1nc2n(n1)CC(NCc1cc(-c3cccs3)on1)CC2` (centres unmarked) [Compound Z1139411735] it is -5%.
With `CCc1nnc2n1CCN(CC(=O)NC1CCCc3ccccc31)C2` (centres unmarked) [Compound Z1139436344], the “First screening IR (inhibition rate)” value is -6%.
The same measure for `Cn1cc(CNC2CCc3ncnn3C2)c(-c2ccncc2)n1` (centres unmarked) [Compound Z1139562831]: 22%.
The figure for `Cc1cccc(-c2[nH]ncc2CNC(C)C(C)n2cccn2)c1` (centres unmarked) [Compound Z1143064210] is -7%; for `CSc1sc(NC(=O)c2n[nH]c(C(C)C)c2Br)nc1C` [Compound Z1143428685] it is 3%; for `Cc1cc(S(C)(=O)=O)c(C)c(S(=O)(=O)N2CCCCCC2)c1` [Compound Z1145185709] it is 6%.
In the case of `Cc1cc(S(C)(=O)=O)c(C)c(S(=O)(=O)N2CCCC(C)C2)c1` (centres unmarked) [Compound Z1145185785], the “First screening IR (inhibition rate)” value stood at 14%.
`C=CCN(CC=C)S(=O)(=O)c1cc(C)cc(S(C)(=O)=O)c1C` [Compound Z1145185872]: the “First screening IR (inhibition rate)” value is listed as 4%.
The same measure for `CCN(CCC#N)S(=O)(=O)c1cc(C)cc(S(C)(=O)=O)c1C` [Compound Z1145197816]: -2%.
The figure for `CN(C)S(=O)(=O)c1ccc(CS(=O)(=O)C2CCCC2)o1` [Compound Z1147565999] is -1%; for `CCC(C)NC(=O)c1ccc2c(=O)n(CC(C)C)c3nnc(SCC(=O)Nc4ccccc4C)n3c2c1` (centres unmarked) [Compound Z1157725045] it is -8%; for `CCC(C)NC(=O)c1ccc2c(=O)n(CC(C)C)c3nnc(SCC(=O)Nc4cccc(C)c4)n3c2c1` (centres unmarked) [Compound Z1157725046] it is 0%.
Turning to `O=C(CCc1nnc2n(Cc3ccc(Cl)cc3)c(=O)c3ccccc3n12)NCCCN1CCOCC1` [Compound Z1157834172], the “First screening IR (inhibition rate)” value is reported as -1%.
`CCC(Sc1nc2ccccc2c2nc(CCN3CCCCC3)nn12)C(=O)Nc1ccc2c(c1)OCO2` (centres unmarked) [Compound Z1157834229]: the “First screening IR (inhibition rate)” value is given as -8%.
The figure for `CCSc1cncc(N2CCC(C(=O)NC(C)C(C)C)CC2)n1` (centres unmarked) [Compound Z1168201963] is 4%; for `CC(C)NC(=O)N1CCCCCC1C1CCN(c2ncc(C(N)=O)cc2Cl)CC1` (centres unmarked) [Compound Z1168219830] it is 13%.
Turning to `CC(C)N(CCNC(=O)CCc1nnc2n(Cc3ccccc3)c(=O)c3ccccc3n12)Cc1ccco1` [Compound Z1169067733], the “First screening IR (inhibition rate)” value is 3%.
For `Cc1ccc(Cn2c(=O)c3ccccc3n3c(CCC(=O)NCCCN4CCOCC4)nnc23)cc1` [Compound Z1169067737], the “First screening IR (inhibition rate)” value is reported as 2%.
The figure for `Cc1ccc(Cn2c(=O)c3ccccc3n3c(CCC(=O)NCCCN4CCC(C)CC4)nnc23)cc1` [Compound Z1169067743] is 18%; for `Cc1ccc(Cn2c(=O)c3ccccc3n3c(CCC(=O)NCCN(Cc4ccco4)C(C)C)nnc23)cc1` [Compound Z1169067782] it is 4%.
The figure for `CC(C)N(CCNC(=O)CCc1nnc2n(Cc3ccc(F)cc3)c(=O)c3ccccc3n12)Cc1ccco1` [Compound Z1169067840] is -10%; for `Cc1[nH]c(=O)c(C#N)c(C)c1CCc1nc(-c2cc(Br)cs2)no1` [Compound Z1170101191] it is 10%.
The same measure for `COCC(=O)N1CCCCCC1C1CCN(c2ncc(C(N)=O)cc2Cl)CC1` (centres unmarked) [Compound Z1170427223]: 2%; for `O=C(C1CC1)N1CCCCCC1C1CCN(Cc2nnc(C3CC3)o2)CC1` (centres unmarked) [Compound Z1170432033]: 7%; for `Cc1ncc(C(=O)NC(C)c2cccc(NC(=O)c3ccccc3)c2)[nH]1` (centres unmarked) [Compound Z1171689075]: -17%.
With `Cc1n[nH]c(C)c1C(C)C(=O)NCC(c1cccc(Cl)c1)N1CCCC1` (centres unmarked) [Compound Z1172045589], the “First screening IR (inhibition rate)” value was 9%.
With `CC(=O)Nc1ccc(Nc2cc(C(C)(C)C)nc3c(-c4ccccc4Cl)c(C)nn23)cc1` [Compound Z1172235206], the “First screening IR (inhibition rate)” value came to 6%.
Turning to `Cc1ccc(Cn2ncc3c(N4CCN(CCO)CC4)ncnc32)cc1` [Compound Z1172235406], the “First screening IR (inhibition rate)” value is given as -13%.
The same measure for `Clc1ccccc1Cn1ncc2c(N3CCOCC3)ncnc21` [Compound Z1172235408]: -4%; for `Clc1ccccc1Cn1ncc2c(NCCc3ccccc3)ncnc21` [Compound Z1172235413]: 4%; for `Clc1ccccc1Cn1ncc2c(N3CCCC3)ncnc21` [Compound Z1172235419]: 45%.
In the case of `CCSc1ccc(C(=O)NCCc2nc(-c3ccco3)n[nH]2)cn1` [Compound Z1174718157], the “First screening IR (inhibition rate)” value was 62%.
On to `O=C(Nc1nccs1)C1CCCN(C(=O)c2[nH]ncc2Br)C1` (centres unmarked) [Compound Z1177677805], for which the “First screening IR (inhibition rate)” value came out at 6%.
The figure for `CCc1nn2c(Nc3ccc(C(N)=O)cc3)cc(C)nc2c1-c1ccc(F)cc1` [Compound Z1179617819] is 6%.
The figure for `Cc1[nH]ncc1Nc1ccc2nccnc2n1` [Compound Z1182665660] is 6%; for `Cc1ccc2nc3c(c(C(=O)O)c2c1)CCC/C3=C/c1cnn(C(C)C)c1` [Compound Z1184925017] it is -1%; for `N#Cc1cccc(NC(=O)NCCNC(=O)c2c(F)cccc2F)c1` [Compound Z1189154512] it is -6%.
Regarding `O=C(NC(C1CC1)C1CC1)C1CCCN1c1ncnc2sccc12` (centres unmarked) [Compound Z1190394303], the “First screening IR (inhibition rate)” value was 6%.
The figure for `FC(F)(F)c1ccnc(Nc2ccc(NCc3ccccn3)cc2)n1` [Compound Z1192169075] is 39%; for `O=C(Nc1ccc(F)cc1)NC1CCN(c2ncnc3nc[nH]c23)C1` (centres unmarked) [Compound Z1193297141] it is -11%; for `CCC(C)CS(=O)(=O)N(C)CC` (centres unmarked) [Compound Z1193464552] it is -7%.
The same measure for `COc1ccc(-n2ccc(C(=O)N3CCCCC3c3cn[nH]c3)n2)cc1` (centres unmarked) [Compound Z1198921141]: 5%; for `O=C1Cc2cc(Nc3nccc(C(F)(F)F)n3)ccc2N1` [Compound Z1199266078]: 13%.
The figure for `CN(C)C1(CNC(=O)CNC(=O)c2cc(F)cc(F)c2)CCOCC1` [Compound Z1199845522] is 6%.
In the case of `CCc1cc(=O)[nH]c(-c2cccc(NC(=O)C3(N4CCOCC4)CCCC3)c2)n1` [Compound Z1203120735], the “First screening IR (inhibition rate)” value was determined as 3%.
The same measure for `COC1CN(C(=O)c2cn(-c3ccccc3)nc2-c2cccnc2)C1` [Compound Z1203241726]: 7%.
